# Patent US9132164B2, “Pharmaceutical compositions comprising angiotensin-(1-9), derivatives thereof, or a vector expressing ACE2, useful for treating cardiovascular, pulmonary, cerebral, and/or renal remodeling” (PONTIFICIA UNIVERSIDAD CATOLICA DE CHILE, priority 2008, dated 2015)
# Marks after values point to notes of the source that are not given here.
# Columns and labels:
# Format in all cases: in vivo, Sprague Dawley rats
# [1] = Circulating bradykinin levels post coronary artery ligation (HPLC and radioimmunoassay); settings: for Bk-(1-7) / Bk-(1-7)/Bk-(1-9) / Bk-(1-9): plasma, 10 mg/kg daily, 8 weeks, ± SEM
# Method: (§1) Male Sprague Dawley rats were kept in cages with access to water and food ad libitum. This procedure was performed in accordance with the Guide for the Care and Use of Laboratory Animals, published by “U.S. National Institutes of Health” (NIH publication No 85-23, revised 1985) and was approved by our Institutional Ethics Committee. For studies with enalapril and candesartan, 71 adult normotensive rats were randomly separated into two groups and underwent a sham surgery (surgery without ligation of the coronary artery, n=34) or myocardial infarction following a surgery with ligation of the left coronary artery (infarction, n=37) as previously described (Ocaranza et al, Hypertension 48:572-8, 2006). Briefly, the left coronary artery was ligated between the pulmonary artery exit and left auricle with a 7-0 silk suture under aseptic conditions in rats anaesthetized with ketamine-HCl/xilazine (35/7 mg/kg intraperitoneal, respectively). Sham rats underwent the same surgical procedure except that the suture was not passed around the left coronary artery. Myocardial infarction was confirmed by electrocardiography 24 h following surgery. Mortality rate from myocardial infarction following ligation of the left coronary artery was 25% within 48 h after occlusion. Infarct size in survivors was determined by planimetry of endocardial circumference of left ventricle on histological sections. Sham and infracted rats were randomized to receive the carrier, candesartan (10 mg/kg of body weight daily) or enalapril (10 mg/kg of body weight daily) by gavage for 8 weeks, beginning 48 h after infarction.
# (§2) Plasma angiotensin and bradykinin levels were determined as described by (Ocaranza et al, Hypertension 48:572-8, 2006; Ocaranza et al, Life Sci. 78:1535-42, 2005; Campbell et al, J. Mol. Cell. Cardiol. 27:1545-60, 1995). Briefly, rats were anesthetized with a combination of ketamin (125 mg/kg) and xilazin (12.5 mg/kg) administered via intraperitoneal injection. […] Plasmas were stored at −80° C. until their extraction using C18 Sep-Pak cartridges, and peptides were acetylated. Acetylated angiotensin II, angiotensin I, angiotensin-(1-7), angiotensin-(1-9), bradykinin-(1-7) and bradykinin-(1-9) were separated by high performance liquid chromatography (HPLC) and were detected by radioimmunoassay.
# (§3) Plasma angiotensin and bradykinin (BK) levels were determined by high performance liquid chromatography and radioimmunoassay as described in example No 2. Angiotensin-I levels are lower in the infarcted rats group, associated with higher levels of angiotensin-II. However, plasma angiotensin-(1-7) and angiotensin-(1,9) levels were similar in sham rats and infarcted rats. Enalapril and candesartan increase both angiotensin-(1-9) circulating levels, and -(1-7)/angiotensin-II and angiotensin-(1-9)/angiotensin-I ratios in both experimental groups. Plasma angiotensin-(1-7) levels were increased by candesartan, and bradykinin-(1-9) levels were increased by enalapril both in infarcted rats and sham rats (Tables 3 and 4).
# [2] = test system: sham and infarcted rats (left coronary artery ligation); test: Effect of candesartan and enalapril on blood pressure, morphometry and function of the left ventricle after coronary artery ligation; settings: for Infarct size LV / LLVWT / LVAWT / LVEDD / LVESD / LVFS / SBP / LVP content / LVW/BW / mRNA ANF / β-MHC: 10 mg/kg daily by gavage, 8 weeks, average ± SEM
# Method: as §1
# Systolic blood pressure (SBP) was determined by using the “tail-cuff” method by investigators who were blind to the treatment group. Left ventricle function was determined by transthoracic bidimensional echocardiography using a Sonos 5000 equipped with a 5 to 12 MHz sectorial electronic ultraband S12 Philips transducer. The following echocardiographic parameters were determined: left ventricular end-systolic diameter (LVESD), left ventricular end diastolic diameter (LVEDD), left ventricular fractional shortening (LVFS), left ventricular anterior wall thickness (LVAWT), and left ventricular posterior wall thickness (LLVWT).
# The extent of left ventricular hypertrophy was calculated by the relationship among left ventricular weight (LVW), body weight (BW), mRNA relative levels of the auricular natriuretic factor (ANF), left ventricular protein content (LVP), and protein levels of β-myosinheavy chain (β-MHC) as described in (Ocaranza et al, Hypertension 48:572-8, 2006).
# Left ventricular hypertrophy (LVH) was assessed by ecocardiography, relative left ventricle weight (RLVW, mg left ventricle weight (LVW)/body weight (BW)), relative levels of auricular natriuretic factor (ANF) mRNA, left ventricle protein (LVP) content, and β-myosin heavy chain (β-MHC) content are described in example 1.
# [3] = Circulating angiotensin levels post coronary artery ligation (HPLC and radioimmunoassay); settings: for Ang I / Ang II / Ang II/Ang I / Ang-(1 -7) / Ang-(1-7)/Ang II / Ang-(1 -9) / Ang-(1-9)/Ang I: plasma, 10 mg/kg daily, 8 weeks, average ± SEM
# Method: as §1, §2, §3
# [4] = both experimental groups (sham and infarcted rats)
smiles,measurement,setting,value
CCOC(=O)[C@H](CCc1ccccc1)N[C@@H](C)C(=O)N1CCC[C@H]1C(=O)O [enalapril],bradykinin-(1-9) levels,[1]; both in infarcted rats and sham rats,increased
same,Bk-(1-7),[1]; infarcted rats (MI),1.40 ± 0.17 fmol/g
same,Bk-(1-7)/Bk-(1-9),[1]; infarcted rats (MI),0.17 ± 0.06
same,Bk-(1-9),[1]; infarcted rats (MI),7.89 ± 1.22 fmol/g
same,Bk-(1-7),[1]; sham rats,1.48 ± 0.46 fmol/g
same,Bk-(1-7)/Bk-(1-9),[1]; sham rats,0.19 ± 0.04
same,Bk-(1-9),[1]; sham rats,9.53 ± 2.99 fmol/g
same,Infarct size LV,[2]; infarcted rats (MI),31 ± 2%
same,LLVWT,[2]; infarcted rats (MI),1.5 ± 0.1 mm
same,LVAWT,[2]; infarcted rats (MI),0.9 ± 0.1 mm
same,LVEDD,[2]; infarcted rats (MI),7.1 ± 0.2 mm
same,LVESD,[2]; infarcted rats (MI),5.4 ± 0.3 mm
same,LVFS,[2]; infarcted rats (MI),21 ± 1 %
same,SBP,[2]; infarcted rats (MI),110 ± 3 mm Hg
same,left ventricle dilatation,"[2]; infarcted rats, week 8",significantly prevented
same,LLVWT,[2]; sham rats,1.4 ± 0.0 mm
same,LVAWT,[2]; sham rats,1.3 ± 0.2 mm
same,LVEDD,[2]; sham rats,7.5 ± 0.3 mm
same,LVESD,[2]; sham rats,5.2 ± 0.1 mm
same,LVFS,[2]; sham rats,30 ± 1%
same,LVP content,[2]; sham rats,12.4 ± 0.8 mg
same,LVW/BW,[2]; sham rats,2.7 ± 0.2 mg/g
same,SBP,[2]; sham rats,113 ± 2 mm Hg
same,mRNA ANF,[2]; sham rats,0.9 ± 0.1 times
same,β-MHC,[2]; sham rats,1.3 ± 0.2 times
same,-(1-7)/angiotensin-II ratio,[3]; [4],increase
same,angiotensin-(1-9) circulating levels,[3]; [4],increase
same,angiotensin-(1-9)/angiotensin-I ratio,[3]; [4],increase
same,Ang I,[3]; infarcted rats (MI),32.4 ± 0.8 fmol/g
same,Ang II,[3]; infarcted rats (MI),23.3 ± 5.4 fmol/g
same,Ang II/Ang I,[3]; infarcted rats (MI),0.72 ± 0.1
same,Ang-(1 -7),[3]; infarcted rats (MI),3.8 ± 0.6 fmol/g
same,Ang-(1-7)/Ang II,[3]; infarcted rats (MI),0.26 ± 0.02
same,Ang-(1 -9),[3]; infarcted rats (MI),29 ± 3 fmol/g
same,Ang-(1-9)/Ang I,[3]; infarcted rats (MI),0.89 ± 0.02
same,Ang I,[3]; sham rats,30.7 ± 1.0 fmol/g
same,Ang II,[3]; sham rats,15.4 ± 3.8 fmol/g
same,Ang II/Ang I,[3]; sham rats,0.45 ± 0.05
same,Ang-(1 -7),[3]; sham rats,4.1 ± 0.5 fmol/g
same,Ang-(1-7)/Ang II,[3]; sham rats,0.25 ± 0.07
same,Ang-(1 -9),[3]; sham rats,25 ± 5 fmol/g
same,Ang-(1-9)/Ang I,[3]; sham rats,0.75 ± 0.03
CCOc1nc2cccc(C(=O)O)c2n1Cc1ccc(-c2ccccc2-c2nnn[nH]2)cc1 [candesartan],Bk-(1-7),[1]; infarcted rats (MI),5.44 ± 1.60 fmol/g
same,Bk-(1-7)/Bk-(1-9),[1]; infarcted rats (MI),1.18 ± 0.21^¶
same,Bk-(1-9),[1]; infarcted rats (MI),4.08 ± 1.43^¶ fmol/g
same,Bk-(1-7),[1]; sham rats,4.41 ± 1.5 fmol/g
same,Bk-(1-7)/Bk-(1-9),[1]; sham rats,1.69 ± 0.51
same,Bk-(1-9),[1]; sham rats,4.30 ± 1.36 fmol/g
same,Infarct size LV,[2]; infarcted rats (MI),30 ± 1%
same,LVAWT,[2]; infarcted rats (MI),0.9 ± 0.4 mm
same,LVEDD,[2]; infarcted rats (MI),8.0 ± 0.3 mm
same,LVESD,[2]; infarcted rats (MI),5.9 ± 0.4 mm
same,LVFS,[2]; infarcted rats (MI),22 ± 2 %
same,SBP,[2]; infarcted rats (MI),88 ± 4*^#¶ mm Hg
same,LLVWT,[2]; sham rats,1.1 ± 0.0 mm
same,LVAWT,[2]; sham rats,1.1 ± 0.4 mm
same,LVEDD,[2]; sham rats,7.7 ± 0.2 mm
same,LVESD,[2]; sham rats,5.1 ± 0.1 mm
same,LVFS,[2]; sham rats,30 ± 2%
same,LVP content,[2]; sham rats,11.6 ± 1.1 mg
same,LVW/BW,[2]; sham rats,2.7 ± 0.1 mg/g
same,SBP,[2]; sham rats,84 ± 4*^#¶ mm Hg
same,mRNA ANF,[2]; sham rats,0.7 ± 0.2 times
same,β-MHC,[2]; sham rats,1.1 ± 0.2 times
same,Ang I,[3]; infarcted rats (MI),30.7 ± 1.9 fmol/g
same,Ang II,[3]; infarcted rats (MI),34.6 ± 4.2*^¶ fmol/g
same,Ang II/Ang I,[3]; infarcted rats (MI),4.5 ± 0.6*^#¶
same,Ang-(1 -7),[3]; infarcted rats (MI),14.4 ± 2.7*^#¶ fmol/g
same,Ang-(1-7)/Ang II,[3]; infarcted rats (MI),1.02 ± 0.06*^#¶
same,Ang-(1 -9),[3]; infarcted rats (MI),43.8 ± 2.9 *^#¶ fmol/g
same,Ang-(1-9)/Ang I,[3]; infarcted rats (MI),2.8 ± 1.1*^#¶
same,Ang I,[3]; sham rats,22.6 ± 5.3 fmol/g
same,Ang II,[3]; sham rats,38.6 ± 7.2 fmol/g
same,Ang II/Ang I,[3]; sham rats,3.3 ± 0.9
same,Ang-(1 -7),[3]; sham rats,10.9 ± 1.6*^#¶ fmol/g
same,Ang-(1-7)/Ang II,[3]; sham rats,0.49 ± 0.15
same,Ang-(1 -9),[3]; sham rats,36.2 ± 4.1 fmol/g
same,Ang-(1-9)/Ang I,[3]; sham rats,2.6 ± 0.7
